Measured values published in patent US20260234217A1, “USE OF BMP RECEPTOR ALK1 INHIBITORS IN OSTEOARTHRITIS THERAPIES” (The Regents of the University of California, priority 2023, published 2026).
Entries after “also recorded” stand apart in the source; their conditions may differ.

Experiments:
[1] = tested on: BMP-9-induced BMP reporter activity by ALK5-deficient ATDC5 cells; experiment: BMP-9-induced BMP signal luciferase reporter in ALK5-deficient chondrocytic cells; assay type: cell-based, mouse; settings: in the presence of 2 ng/mL of rhBMP-9; read-out: median effective concentration (EC50) to block BMP activity in vitro
Excerpt: Ligands that bind to ALK1 at physiological concentrations are BMP9 and BMP10 (Chen et al, PNAS 2013). […] ActRIIB has 300-fold higher affinity for BMP9 than does ActRIIA (Townson et. al., J Biol Chem. 2012 Aug. 10; 287(33):27313-2). The formation of ALK1-ActRIIB complexes is associated with the elevation of levels of pSmad1/5-mediated BMP signaling in cartilage (Wang et al., PNAS 2009)[4]. […] Furthermore, since loss of ALK5 causes OA and ALK5 antagonizes ALK1, these above results provide evidence that blocking ALK1 signaling may prevent OA development.
As described herein, the ALK1 receptor normally binds to ALK5 and/or ActRIIA in healthy chondrocytes, but in OA conditions ALK5 expression levels decline in chondrocytes and ALK1 tends to complex with ActRIIB; this ALK1/ActRIIB complex has high affinity for BMP9 and BMP10. […] BMP signaling output is monitored by a BMP signal luciferase reporter plasmid which contains a Smad1/5/8 response element in the promoter region. The biological efficacy of ALK1 antagonists is measured by their ability to inhibit BMP-9-induced BMP reporter activity by ALK5-deficient chondrocytic cells, such as ALK5-deficient ATDC5 cells. […]

Collagen-X (COL10) = experiment: Immunohistochemistry of articular cartilage in DMM mice; assay type: in vivo, mouse
Method: (§1) Mice (C57BL/6J) were purchased from The Jackson Laboratory. All mice were housed on a 12-hour light/dark cycle with unrestricted access to standard mouse food and water. The DMM model of injury induced OA was performed on mice at 12 weeks of age by opening the joint capsule and transecting the medial meniscotibial ligament in the right knee, destabilizing the medial meniscus(48). A sham operation was performed on the left knee of each mouse by observing the medial meniscotibial ligament but not transecting it. Mice were administered carprofen 5 mg/kg (Zoetis; 1041283) subcutaneously 30 minutes prior to surgery, immediately post-surgery, and 24 hours post-surgery to minimize pain.
(§2) Treatments were initiated either 1 day after DMM surgery once a week for 8 weeks, or 1 month after DMM surgery twice a week for 4 weeks. Mice were sacrificed at 20 weeks of age (2 months after surgery). To understand the level of articular cartilage damage 1 month after DMM surgery, a cohort of mice was sacrificed at 16 weeks old (FIG. 4).
(§3) Seven micrometer-thick representative sections were chosen for immunohistochemistry, using a standard protocol (35). Tissue sections were deparaffinized, rehydrated, and washed in sodium borohydride (Sigma-Aldrich; 480886). Sections were then incubated with hyaluronidase (Sigma-Aldrich; H3505) and blocked with 5% serum in 1% PBST. Tissue sections were treated with primary antibodies to mouse ALK1 (R&D; AF770), Phospho-SMAD1/5 (Cell Signaling Technology; 9516), Phospho-SMAD2 (Cell Signaling Technology; 3108), MMP13 (Abcam; ab260040), and COL10 (Abcam; […]) and incubated overnight. Sections were then treated with a dilution of secondary antibody goat anti-rabbit IgG (H+L) Cross-Adsorbed Secondary Antibody, Alexa Flour 488 (Invitrogen; A-11008) or donkey anti-goat IgG (H+L) Cross-Adsorbed Secondary Antibody, Alexa Flour 488 (Invitrogen; A11055) for 4 hours. Finally, sections were incubated with 0.1 ug/mL of DAPI for 10 minutes before being mounted with Fluoro-Gel (Electron Microscopy Sciences; 17985-31). Images were taken with the Nikon Eclipse Ti fluorescent microscope.

[2] = tested on: Matrix Metalloproteinase-13 (MMP13); experiment: as above; assay type: in vivo, mouse
Method: as §1, §2, §3

pSMAD1/5 = experiment: as above; assay type: in vivo, mouse
Method: as §1, §2, §3

pSMAD2/3 = experiment: as above; assay type: in vivo, mouse
Method: as §1, §2, §3

[3] = tested on: OA associated pain in DMM mice; experiment: Von Frey pain assessment (50% paw withdrawal threshold) in DMM mice; assay type: in vivo, mouse
Method: In a functional assessment of BMP-KI and ALK1-Fc, we measured pain and sensitivity in mice following DMM surgery and treatment with BMP-KI and ALK1-Fc using Von Frey analysis. Mice underwent DMM surgery at 3 months of age and were treated with BMP-KI or ALK1Fc once a week for 8 weeks following surgery. Mice underwent Von Frey testing immediately prior to surgery, and each week following surgery. Von Frey testing involved exposure of the injured limb hindfoot plantar surface to a monofilament of a designated caliber (measured in grams). […] The 50% PWT was then calculated mathematically as previously described(54). A higher 50% paw withdrawal threshold indicates less sensitivity in the surgically treated limb. Mice undergoing sham surgery were also tested as a control.
Pain was assessed using the 50% paw withdrawal threshold (PWT) using Von Frey filaments and the up-and-down method as described(86, 87). Each mouse was tested three times by evaluators blinded to treatment group, and the average value was calculated. Whether or not each of the three acquired values is normal is based on the Jarque-Baera test. 4-5 mice were analyzed per treatment condition. Significance was assessed using two-way ANOVA and Tuckey's multiple comparisons test.

[4] = treated 1 month after DMM surgery
[5] = treatment immediately after DMM surgery, week 8, listed as BMP-KI
[6] = delayed administration (1 month after DMM surgery)
[7] = treatment immediately after DMM surgery, week 8

Structure (SMILES): COc1cc(-c2cc(-c3ccc(N4CCNCC4)cc3)cnc2C)cc(OC)c1OC [LDN-214117]
- EC50 [1]: 40 nM
- COL10 levels (percentage of cells expressing) (Collagen-X (COL10); [4]): significantly decreased
- COL10 levels (percent of cells expressing) (Collagen-X (COL10); [5]): significantly decreases levels of expression; also recorded: visibly reduced
- MMP13 levels (percentage of cells expressing) [2, 4]: attenuated to those of healthy sham control AC
- MMP13 levels (percent of cells expressing) [2, 5]: significantly decreases levels of expression; also recorded: visibly reduced
- percentage of cells positive for pSMAD1/5 (pSMAD1/5; [6]): reduced
- pSMAD1/5 expression in articular cartilage (pSMAD1/5; [7]): reduced to normal levels
- percent cells positive for pSMAD2/3 (pSMAD2/3; [6]): not rescued
- pSMAD2/3 expression in articular cartilage (pSMAD2/3; [7]): not restored to normal levels
- pain (Von Frey 50% paw withdrawal threshold) ([3]; week 6 after surgery, vs DMM control): did not exhibit an increase in pain
- pain (Von Frey) compared to mice that had received sham surgery ([3]; week 8): no significant difference
